From patent publication US9149038B2, “4-amino-6-(heterocyclic)picolinates and 6-amino-2-(heterocyclic)pyrimidine-4-carboxylates and their use as herbicides” (Dow AgroSciences LLC, priority 2013, dated 2015)
Read-outs that look alike come from different tables or passages of the source.

Legend:
[1] = tested on: Key Broadleaf Weed and Crop Species; assay: Post-Emergent Test II: postemergent herbicidal activity, visual rating after 14 d (Table 7); type: in vivo; settings: post-emergence, 336 h; for pest or weed control at 35 g/ha: 35 g ai/ha; for pest or weed control at 70 g/ha: 70 g ai/ha; for pest or weed control at 140 g/ha: 140 g ai/ha
Summary of the method: (§1)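 Track-sprayed young seedlings (first/second true leaf) at 187 L/ha across a 2-fold rate series from the high rate down to 1/16×. Kept in greenhouse at 23-29° C day, subirrigated. Injury rated by eye after 14 d, 0 = no injury, 100 = complete kill.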

[2] = tested on: Key Grass and Sedge Weeds as well as Grass Crops; assay: Post-Emergent Test II: postemergent herbicidal activity, visual rating after 14 d (Table 8); type: in vivo; settings: post-emergence, 336 h; for pest or weed control at 35 g/ha: 35 g ai/ha; for pest or weed control at 70 g/ha: 70 g ai/ha; for pest or weed control at 140 g/ha: 140 g ai/ha
Summary of the method: as §1

[3] = ABUTH: velvetleaf (Abutilon theophrasti), read-out: Visual Growth Reduction (%) 14 Days After Application ABUTH
[4] = AMARE: redroot pigweed (Amaranthus retroflexus), read-out: Visual Growth Reduction (%) 14 Days After Application AMARE
[5] = BRSNN: oilseed rape, canola (Brassica napus), read-out: Visual Growth Reduction (%) 14 Days After Application BRSNN
[6] = CHEAL: lambsquarters (Chenopodium album), read-out: Visual Growth Reduction (%) 14 Days After Application CHEAL
[7] = EPHHL: wild poinsettia (Euphorbia heterophylla), read-out: Visual Growth Reduction (%) 14 Days After Application EPHHL
[8] = HELAN: sunflower (Helianthus annuus), read-out: Visual Growth Reduction (%) 14 Days After Application HELAN
[9] = barnyardgrass (Echinochloa crus-galli), read-out: Visual Growth Reduction (%) 14 Days After Application, ECHCG
[10] = giant foxtail (Setaria faberi), read-out: Visual Growth Reduction (%) 14 Days After Application, SETFA
[11] = maize, corn (Zea mays), read-out: Visual Growth Reduction (%) 14 Days After Application, ZEAMX
[12] = rice (Oryza sativa), read-out: Visual Growth Reduction (%) 14 Days After Application, ORYSA
[13] = wheat, spring (Triticum aestivum), read-out: Visual Growth Reduction (%) 14 Days After Application, TRZAS
[14] = yellow nutsedge (Cyperus esculentus), read-out: Visual Growth Reduction (%) 14 Days After Application, CYPES

COC(=O)c1nc(-c2ccc3c(c2)OCC3)c(F)c(N)c1Cl [Compound 100, Methyl 4-amino-3-chloro-6-(2,3-dihydrobenzofuran-6-yl)-5-fluoropicolinate]
pest or weed control at 35 g/ha [1, 3]: 45 to 59%
pest or weed control at 70 g/ha [1, 3]: 85 to 94%
pest or weed control at 140 g/ha [1, 3]: 95 to 100%
pest or weed control at 35 g/ha [1, 4]: 75 to 84%
pest or weed control at 70 g/ha [1, 4]: 95 to 100%
pest or weed control at 140 g/ha [1, 4]: 95 to 100%
pest or weed control at 35 g/ha [1, 5]: 0 to 29%
pest or weed control at 70 g/ha [1, 5]: 0 to 29%
pest or weed control at 140 g/ha [1, 5]: 0 to 29%
pest or weed control at 35 g/ha [1, 6]: 95 to 100%
pest or weed control at 70 g/ha [1, 6]: 95 to 100%
pest or weed control at 140 g/ha [1, 6]: 95 to 100%
pest or weed control at 35 g/ha [1, 7]: 95 to 100%
pest or weed control at 70 g/ha [1, 7]: 95 to 100%
pest or weed control at 140 g/ha [1, 7]: 95 to 100%
pest or weed control at 35 g/ha [1, 8]: 60 to 74%
pest or weed control at 70 g/ha [1, 8]: 60 to 74%
pest or weed control at 140 g/ha [1, 8]: 75 to 84%
pest or weed control at 35 g/ha [2, 9]: 45 to 59%
pest or weed control at 70 g/ha [2, 9]: 75 to 84%
pest or weed control at 140 g/ha [2, 9]: 85 to 94%
pest or weed control at 35 g/ha [2, 10]: 0 to 29%
pest or weed control at 70 g/ha [2, 10]: 0 to 29%
pest or weed control at 140 g/ha [2, 10]: 0 to 29%
pest or weed control at 35 g/ha [2, 11]: 0 to 29%
pest or weed control at 70 g/ha [2, 11]: 95 to 100%
pest or weed control at 140 g/ha [2, 11]: 95 to 100%
pest or weed control at 35 g/ha [2, 12]: 0 to 29%
pest or weed control at 70 g/ha [2, 12]: 0 to 29%
pest or weed control at 140 g/ha [2, 12]: 0 to 29%
pest or weed control at 35 g/ha [2, 13]: 0 to 29%
pest or weed control at 70 g/ha [2, 13]: 0 to 29%
pest or weed control at 140 g/ha [2, 13]: 0 to 29%
pest or weed control at 35 g/ha [2, 14]: 0 to 29%
pest or weed control at 70 g/ha [2, 14]: 0 to 29%
pest or weed control at 140 g/ha [2, 14]: 0 to 29%
